For 1 compound, EC50 results are on record in PMC2928581 (Nature communications, 2010).

This assay deals with TRPML1 (ML1) (Mus musculus, UniProt Q99J21). The assay is described as follows: whole-endolysosome patch clamp, current activation. The class given is biochemical.

The structures appear in SMILES notation.

TRPML1 (ML1), sequence (Q99J21 whole entry): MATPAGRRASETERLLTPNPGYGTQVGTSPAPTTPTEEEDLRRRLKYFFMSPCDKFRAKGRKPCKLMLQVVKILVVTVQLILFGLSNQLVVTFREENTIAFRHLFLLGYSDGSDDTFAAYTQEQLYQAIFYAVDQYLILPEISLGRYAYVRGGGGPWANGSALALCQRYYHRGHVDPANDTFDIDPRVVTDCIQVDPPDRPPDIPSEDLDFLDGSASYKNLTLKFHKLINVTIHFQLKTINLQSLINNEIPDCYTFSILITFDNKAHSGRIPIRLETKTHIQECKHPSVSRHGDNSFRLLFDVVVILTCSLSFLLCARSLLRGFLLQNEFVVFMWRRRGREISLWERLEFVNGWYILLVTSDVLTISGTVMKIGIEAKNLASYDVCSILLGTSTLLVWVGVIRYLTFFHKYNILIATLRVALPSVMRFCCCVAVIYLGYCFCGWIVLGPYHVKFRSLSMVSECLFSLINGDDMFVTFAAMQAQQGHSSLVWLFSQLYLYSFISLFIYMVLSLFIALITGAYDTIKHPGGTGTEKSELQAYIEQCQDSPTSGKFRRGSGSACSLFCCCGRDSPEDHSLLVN

With `CCCCCCCC(=O)OC[C@H](COP(=O)(O)O[C@@H]1[C@H](O)[C@H](OP(=O)(O)O)[C@@H](O)[C@H](OP(=O)(O)O)[C@H]1O)OC(=O)CCCCCCC` [PI(3,5)P2 (diC8)], it took 48 ± 14 nM to reach a half-maximal effect (EC50).

Broadly, the EC50 is the concentration giving half of the maximal effect.
